Results reported in patent US20120157396A1, “PYRAZINAMIDE FOR IMMUNOSTIMULATION AND THE TREATMENT OF LEISHMANIASES” (priority 2009, published 2012).
“And” between values parts separate entries of the source, which are not always exact repeats. Equal entries are not always repeated. Where two headings read alike, the source gives them in different places.

Legend:
L. major promastigotes = test: L. major promastigote drug treatment, parasite survival after 48 h; assay type: cell-based; conditions: 48 h, promastigote
Method: The effect of PZA was first investigated with promastigotes of L. major. PZA was diluted in medium and added to cultures. After 48 h, parasite multiplication was determined by counting parasites in culture. […] Incubation of L. major with 1 μg/ml amphotericin B (as a positive control) caused 100% mortality of promastigotes and 90% of amastigotes.
Mid-log phase (day 3 of culture) L. major promastigotes were employed. Parasite concentration was adjusted to 10^6 promastigotes/ml and seeded into 96-well plates in a volume of 100 μl (final concentration, 10^5 promastigotes/well). PZA was tested in triplicate in a concentration gradient from 1,000-0.5 μg/ml and added to the wells containing the parasite in a volume of 100 μl. A negative control was included with three wells containing only parasites and medium. The positive control consisted of amphotericin B (1 μg/ml). This concentration was previously employed by us because this concentration is equivalent to drug concentrations achieved in human plasma. After 48 h of incubation at 26° C., 10 μL of each well was diluted in 90 μL of the vital colorant (trypan blue in PBS) and the parasites were quantified in a Neubauer chamber. Data was normalized as percentage of survival compared to untreated controls. The Lethal Dose 50 (LD50) was extrapolated from the graph as the concentration of the products that inhibited the parasitic growth at 50% of the values of the negative control.

uninfected J774 cells = assay type: cell-based; conditions: 48 h; for percentage of survival compared to untreated control: mouse
Method: The potential cytotoxicity of PZA toward the mammalian cell line was determined by co-incubation of PZA with uninfected J774 cells for 48 h (10^4 cells/well) in 96-well culture plates. […] At 200 μg/ml, the compound started to show signs of toxicity, resulting in mortality of 25% of the cell monolayer. […] The control drug amphotericin B caused 5% mortality of the cell monolayer at the concentration tested (1 μg/ml).
J774 cell viability following incubation with PZA was also determined. Cells were seeded onto 8-well Labtek chambers as above and incubated with different concentrations of PZA (up to 1 mg/ml) for 48 h, stained with Diff-Quick and counted under light microscope. The percentage of viable cells was determined after quantifying the number of cells present per field (in 25 fields, ca. 500 cells). Percentage of survival and MIC50 were calculated as above.

L. donovani = system: L. donovani
Method: To induce visceral leishmaniasis, we inoculated mice (n=8) intravenously with 5×10^6 L. donovani 1S and treated them with PZA (900-150 mg/kg) for 3 wks, 5 days/wk. The lowest dose was equivalent to dose of PZA used in humans (2 g/day). A group of mice treated with vehicle (3.8% DMSO in water) was included as a control. C57BL/6 mice infected with L. donovani typically show detectable parasites in liver and spleens for 8-12 wk. […] We euthanized mice 3 wks after the initiation of the experiment and determined total body weight, liver and spleen weights, and number of parasites in livers.

splenocytes = test: Lymphoproliferative response of splenocytes from L. donovani-infected treated mice; assay type: cell-based, C57BL/6 mice; conditions: PZA-treated mice, dose dependent
Method: FIG. 5. PZA increases proliferation in treated splenocytes. Positive proliferation (measured as loss of CFSE staining at day 5) at 3 wk post infection in CFSE-stained splenocytes from C75BL/6 mice infected with L. donovani and treated with drug vehicle (3.8% DMSO, control) or increasing concentrations of PZA (n=3±SD), following in vitro restimulation with 25 μg/ml leishmanial antigen or 2 μg/ml concanavalin A.
VL typically induces T cell anergy toward leishmanial antigens.

[1] = PZA-treated children, Zhu et al.; cited from earlier work
[2] = mouse models of VL (FIG. 8 legend)

**Q.** Which results are given for NC(=O)c1cnccn1 [PZA, pyrazinamide]?
**A.** MIC50 (L. major promastigotes; Leishmania major): 10 µM and 16.2 µg/mL; percentage of survival compared to untreated control (L. major promastigotes; PZA 1 μg/ml): 88 ± 18%; percentage of survival compared to untreated control (L. major promastigotes; PZA 12.5 μg/ml): 50 ± 18%; percentage of survival compared to untreated control (L. major promastigotes; PZA 50 μg/ml): 38 ± 14%; percentage of survival compared to untreated control (L. major promastigotes; PZA 200 μg/ml): 20 ± 10%; percentage of survival compared to untreated control (L. major promastigotes; PZA 1000 μg/ml): 10 ± 12%; mortality of the cell monolayer (uninfected J774 cells; PZA 200 μg/ml): 25%; mortality of the macrophages (uninfected J774 cells; PZA 1 mg/ml): 100%; percentage of survival compared to untreated control (uninfected J774 cells; 1 μg/ml): 100 ± 11%; percentage of survival compared to untreated control (uninfected J774 cells; 12.5 μg/ml): 100 ± 10%; percentage of survival compared to untreated control (uninfected J774 cells; 50 μg/ml): 100 ± 12%; percentage of survival compared to untreated control (uninfected J774 cells; 100 μg/ml): 100 ± 15%; percentage of survival compared to untreated control (uninfected J774 cells; 200 μg/ml): 85 ± 12%; percentage of survival compared to untreated control (uninfected J774 cells; 1000 μg/ml): 0%; size of livers and spleens (L. donovani; PZA 900-150 mg/kg, 3 wks): significantly reduced; liver parasites (L. donovani; PZA at all doses tested (900-150 mg/kg), 3 wks): significantly decreased; hepatomegaly and splenomegaly (L. donovani; [2]): prevented hepatomegaly and splenomegaly; reduction of liver parasites (L. donovani; [2]): 2-4 log 10; proliferation of splenocytes to leishmanial antigens and concanavalin A (splenocytes): recovered their ability to proliferate; serum concentration [1]: 41000 ng/mL
